Results from US8466195B2, “Methods and compositions for treating complications of diabetes and vascular diseases using flavones” (Salk Institute for Biological Studies, priority 2009, dated 2013).
Entries after “also recorded” stand apart in the source; their conditions may differ.

Experiments:
Akita mice [1] = assay: Urine albumin/creatinine ratio in Akita mice; assay type: in vivo; settings: fisetin 0.05% in diet for 18 weeks
Experimental: (§1) Urine albumin concentration was determined by competitive enzyme-linked immunoadsorbent assay using an Albuwell M kit (Exocell, Philadelphia, Pa.). Urine creatinine concentration was determined by Jaffe's reaction of alkaline picrate with creatinine using a Creatinine Companion kit (Exocell). Results are expressed as the urine albumin-to-creatinine ratio (micrograms per milligram).
(§2) Male Akita mice were fed control diet or fisetin (0.05%) for 18 weeks beginning at 6 weeks of age. Kidney hypertrophy was assessed by weighing the kidneys. Kidney function was assessed by measuring the albumin/creatinine ratio in the urine. Fisetin reduced diabetes-induced renal hypertrophy and proteinuria. All data are mean±SD of N=5-7/group.

osteopontin (OPN) = assay: Kidney osteopontin (OPN) in Akita mice (immunoblot); assay type: in vivo; settings: fisetin in diet, OPN band normalized to actin
Experimental: Kidneys were homogenized in phosphate buffered saline containing protease and phosphatase inhibitors. Equal amounts of protein, as determined by the BCA assay (Pierce), were solubilized in SDS-sample buffer containing 0.1 mM Na3VO4 and 1 mM phenylmethylsulfonyl fluoride (PMSF), boiled for 5 min and either analyzed immediately or stored frozen at −70° C. Proteins were separated on 10% SDS-polyacrylamide gels and transferred to nitrocellulose. Equal loading and transfer of the samples was confirmed by staining the nitrocellulose with Ponceau-S. Transfers were blocked for 1 h at room temperature with 5% nonfat milk in TBS/0.1% Tween 20 and then incubated overnight at 4° C. in the primary antibody diluted in 5% BSA in TBS/0.05% Tween 20. The primary antibodies used were: rabbit anti-osteopontin (Millipore) and actin-HRP (Cell Signaling). […]
OPN is a key regulator of the pathophysiological changes associated with diabetic nephropathy (Nicolas et al. Kidney Int. advance online publication, 3 Feb. 2010). […] Kidney samples from 6-7 mice were analyzed and the average intensity of the OPN band normalized to actin is shown in the graph. […] In FIG. 10, the data was analyzed by ANOVA followed by Tukey's post test. *** P<0.001

HT22 cells = assay: GSH level in HT22 cells; assay type: cell-based; settings: 10 μM fisetin, absence or presence of 5 mM glutamate, 24 hr
Experimental: As shown in panel (A) of FIG. 3, HT22 cells were untreated (ct) or treated with 10 μM fisetin (fis) in the absence of presence of 5 mM glutamate for 24 hr and GSH was measured enzymatically and normalized to protein. As shown in panel (B) of FIG. 3, HT22 cells in 96-well plates were treated with 5 mM glutamate and the indicated concentrations of fisetin. MTT reduction was measured after 24 hr.

Akita mice [2] = assay: Thermal latency response of hind paw in Akita mice; assay type: in vivo; settings: fisetin 0.05% in diet for 18 weeks
Experimental: Mice were placed in an observation chamber on the surface (floor temperature 30° C.) of a modified Hargreaves apparatus (UARD, San Diego, Calif.) and allowed to acclimate for 5 min. For measurement of thermal response latency, a heat source that warmed the chamber surface at approximately 1° C./sec was moved underneath the hind paw and the time to foot withdrawal recorded automatically. The procedure was repeated 4 times on the same paw at 5 min intervals and the median of values 2-4 used to represent the thermal response latency.
(§3) Male Akita mice were fed control diet or fisetin (0.05%) for 18 weeks beginning at 6 weeks of age. Large fiber function was tested by measuring motor nerve conduction velocity and small fiber function by paw withdrawal to noxious heat. Diabetes-induced MNCV slowing and thermal hypoalgesia were ameliorated by fisetin treatment. All data are mean±SD of N=5-7/group. […] P<0.05.

[3] = test system: human brain microvascular cells; assay: Protein glycation in human brain microvascular cells exposed to glucose; assay type: cell-based; settings: 1 μM fisetin
Experimental: (§4) In reference to FIG. 1, BSA was incubated with either 100 mM glucose (G) or 100 mM methylglyoxal (MG) for 14 days at 37° C. plus or minus 100 μM fisetin. The BSA was dialyzed vs. PBS run on SDS-PAGE and blotted with anti-carboxymethyl lysine (CML) (a glucose AGE) or anti-MG adducts from Dr. Brownlee. […] In FIG. 1, panel B, anti-MG only reacts with MG treated BSA and also causes protein polymerization. In FIG. 1, panel C, co-incubation with fisetin results in inhibition of glucose glycation in 2 assays, Western blotting with a-CML (BL, hatched bars) and a fluorescence assay for protein glycation (FL, clear bars). In FIG. 1, panel D, fisetin inhibited protein glycation caused by high glucose exposure of human brain microvascular cells. Cells were exposed to either 5 mM (−Glu) or 25 mM (+Glu) glucose for 5 days plus (F) or minus (C) 1 μM fisetin. Cells were then harvested and blotted with either anti-CML or MG antisera.

STZ-diabetic rats = assay: Kidney function (urine albumin/creatinine ratio) in STZ-diabetic rats; assay type: in vivo, Sprague-Dawley rats; settings: 25 mg/kg/day fisetin; 6 and 8 weeks after induction of diabetes
Experimental: as §1
Adult female Sprague-Dawley rats were made diabetic with STZ and treated with vehicle or 25 mg/kg/day fisetin. Kidney function was assessed by measuring the albumin/creatinine ratio in the urine at 6 and 8 weeks following induction of diabetes. Fisetin reduced diabetes-induced proteinuria. Data are mean±SEM of N=7-8/group.

Akita mice [4] = assay: Motor nerve conduction velocity in Akita mice; assay type: in vivo; settings: fisetin 0.05% in diet for 18 weeks
Experimental: Conduction velocity of large myelinated motor fibers in the sciatic:tibial nerve system was measured in mice under isoflurane anesthesia with nerve temperature maintained at 37° C., as previously described (Calcutt et al. Diabetes 39:663-666, 1990). Briefly, stimulating electrodes were placed at the left sciatic notch and Achilles tendon and recording electrodes placed in the interosseus muscles of the ipsilateral hind paw. Electromyograms were recorded on a storage oscilloscope after stimulation at each site using single square waves (5 v, 0.05 ms) and motor nerve conduction velocity (MNCV) calculated using the peak to peak distance of the resulting M waves and the distance between the two stimulation sites. The median of 3 separate MNCV measurements was used to represent values for each mouse.
as §3

BSA = BSA (Bos taurus, UniProt P02769); assay: Glycation of BSA by glucose (anti-CML Western blot and fluorescence assay); assay type: biochemical; settings: 100 mM glucose, 14 days 37° C., 100 μM fisetin; Western blotting with a-CML and fluorescence assay
Sequence of BSA (P02769 25-607): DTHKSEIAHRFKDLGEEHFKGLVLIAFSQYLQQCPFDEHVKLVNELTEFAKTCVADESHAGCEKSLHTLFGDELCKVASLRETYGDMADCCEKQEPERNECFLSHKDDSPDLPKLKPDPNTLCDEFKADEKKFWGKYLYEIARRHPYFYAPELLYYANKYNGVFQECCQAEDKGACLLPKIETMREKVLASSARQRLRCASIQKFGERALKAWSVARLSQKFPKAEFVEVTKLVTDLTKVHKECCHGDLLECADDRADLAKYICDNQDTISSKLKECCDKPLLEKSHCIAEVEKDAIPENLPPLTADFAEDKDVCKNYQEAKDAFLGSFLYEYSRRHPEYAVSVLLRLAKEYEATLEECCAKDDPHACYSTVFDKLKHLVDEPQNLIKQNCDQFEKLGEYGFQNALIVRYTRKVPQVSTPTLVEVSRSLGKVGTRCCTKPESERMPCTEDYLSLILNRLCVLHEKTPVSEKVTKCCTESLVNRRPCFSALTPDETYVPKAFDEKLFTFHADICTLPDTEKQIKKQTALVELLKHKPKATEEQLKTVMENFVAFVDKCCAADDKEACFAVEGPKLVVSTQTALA
Experimental: as §4

Akita mice [5] = assay: Kidney hypertrophy (kidney weight) in Akita mice; assay type: in vivo; settings: fisetin 0.05% in diet for 18 weeks
Experimental: as §2

With `O=c1c(O)c(-c2ccc(O)c(O)c2)oc2cc(O)ccc12` [fisetin, 2-(3,4-dihydroxyphenyl)-3,7-dihydroxychromen-4-one] the “proteinuria (urine albumin/creatinine ratio)” value (Akita mice [1]) was “almost completely prevented”, the “proteinuria (urine albumin/creatinine ratio)” value (Akita mice [1]; listed as Fisetin) was “reduced” and the “diabetes-dependent upregulation of osteopontin (OPN) in kidney” value (osteopontin (OPN)) was “Prevented”. The GSH (HT22 cells) was “Upregulation”, the “thermal hypoalgesia (hind paw thermal latency)” value (Akita mice [2]) was “ameliorated; also recorded: prevented” and the “increase of CML and MG adducts caused by high glucose” value ([3]; 25 mM glucose 5 days) was “blocked, at least in part”. The “endogenous glycation of some proteins” value ([3]; low glucose medium (5 mM)) was “inhibits”, the “diabetes-induced proteinuria (urine albumin/creatinine ratio)” value (STZ-diabetic rats) was “reduced” and the “diabetes-induced MNCV slowing” value (Akita mice [4]) was “ameliorated; also recorded: prevented”. The “glucose glycation of BSA” value (BSA) was “inhibition”, the “diabetes-induced renal hypertrophy (kidney weight)” value (Akita mice [5]) was “greatly reduced” and the “diabetes-induced renal hypertrophy (kidney weight)” value (Akita mice [5]; listed as Fisetin) was “reduced”.
